# What was measured:
# U937/Bcl-2 cells = experiment: morphological assessment of apoptosis in Bcl-2 overexpressing cells; assay type: cell-based, human; settings: ara-C 1.0 μM x 6 h
# Excerpt: (§1) Cell culture. The myelomonocytic leukemia cell line U937 was derived from a patient with histiocytic lymphoma and was obtained from American Type Culture Collection. The HL-60 cell line was derived from a patient with acute promyelocytic leukemia as previously described [Grant et al. 1992]. U937 and HL-60 cells were maintained in logarithmic growth phase by culturing in suspension in phenol red-free RPMI-1640 (Life Technologies, Inc., Grand Island, N.Y.) and 10% (v/v) fetal calf serum (Hyclone, Logan, Utah), in a humidified atmosphere (95% air/5% CO2) at 37° C. To obtain antisense-expressing cell lines, U937 cells were transfected by electroporation with a pREP4 vector (Invitrogen; Carlsbad, Calif.) or the pREP4 vector containing the p21^WAF1/CIP1 coding region in an antisense orientation as previously described [Wang et al. 1999]. […]
# (§2) Morphological assessment of apoptosis. U937 cells were evaluated for apoptosis by morphological assessment of Wright and Giemsa-stained cytospin preparations. At designated times, cells were transferred to slides by cytocentrifugation, fixed, stained, and evaluated under light microscopy for treatment-induced apoptosis. […] Five or more randomly selected fields, encompassing a total≧500 cells/slide, were evaluated to determine the percentage of apoptotic cells for each treatment condition.
# U937 cells [1] = experiment: clonogenic survival assay; assay type: cell-based, human; settings: 24-h exposure; 10 nM PMA alone or 10 nM PMA/100 nM FP
# Experimental: Clonogenic survival assays. Clonogenic survival assays assessed the effects of 10 nM PMA, FP (50 or 100 nM) or PMA/FP co-treatments on leukemic cell self-renewal capacity. Cell densities were determined after 24-h drug treatment using a Coulter Counter (Coulter Electronics, Hialeah, Fla.). Cells were pelleted by centrifugation and resuspended in fresh media to achieve a final cell density of 3×10^5/ml. A total of 4500 cells were plated in soft agar cloning medium for each condition as previously described [Powell et al. 1995]. Colonies, defined as groups of≧50 cells, were scored after 12 days of incubation. Clonogenic survival in drug-treated samples was expressed as a percentage relative to untreated controls.
# U937 cells [2] = experiment: CD11b surface differentiation marker expression (flow cytometry); assay type: cell-based, human; settings: 24 h; 10 nM PMA alone or with 50 nM FP
# Experimental: (§3) Differentiation studies. Expression of the monocytic differentiation marker, CD11b, was monitored by direct immunofluorescence staining and flow cytometric analysis as previously described [Freemerman et al. 1997]. Following drug treatment, suspension and adherent cells were enumerated by a Coulter Counter and 2×10^6 cells were pelleted by centrifugation. The supernatant was aspirated and the cells were resuspended in 300 μl of ice-cold PBS. Two 100 μl aliquots from each sample were then combined with either phycoerythrin-1 (10 μl) or the IgG control. Samples were incubated for 20 min at 4° C. and diluted in PBS (1 ml). Sample data were collected using a Becton Dickinson FACScan flow cytometer and analyzed with Verity Winlist Software (Verity; Topsham, Me.). […] U937 cells were transfected with a full-length p21^WAF1/CIP1 promoter (base pairs 1-2326) as described by Chinery et al. [Chinery et al. 1997] utilizing electroporation (Eppendorf Multiporator, 620V, 60 μs) in hypoosmolar buffer. In each experiment, pSV-βgal (Promega), containing the β-galactosidase gene under the control of the constitutively active SV40 promoter and enhancer, was co-transfected with the luciferase reporter at a ratio of 1:5 (w/w) to normalize for transfection efficiency. The cells were incubated overnight in complete media and treated with 10 nM PMA, 100 nM FP, or 10 nM PMA/100 nM FP for 3 or 6 h. At indicated times, cells were washed in serum-free media, resuspended in 0.25M Tris-HCl pH 7.8, lysed by rapid freeze-thaw, centrifuged and the supernatant frozen at −70° C. Lysates (20 μL) were mixed with luciferase assay reagent (100 μL) and monitored for 20 seconds in a luminometer (Monolight 2010). For β-galactosidase activity, lysates (50 μL) were mixed in triplicate with an equal volume of luciferase assay buffer (2×) in a 96-well plate and incubated overnight. The reaction was terminated by addition of NaCO3 and absorbance was measured at 405 nm in a Vmax plate reader (Molecular Devices). Activity was determined by comparison to a standard curve. […]
# U937 cells [3] = experiment: plastic adherence (differentiation); assay type: cell-based, human; settings: 10 nM PMA alone or with FP 100 nM
# Experimental: as §3, with “In each experiment, pSV-βgal (Promega), containing the β-galactosidase gene under the control of the constitutively active SV40 promoter and enhancer, was co-transfected with the luciferase reporter at a ratio of 1:5 (w/w) to normalize for transfection efficiency. The cells were incubated overnight in complete media and treated with 10 nM PMA, 100 nM FP, or 10 nM PMA/100 nM FP for 3 or 6 h. At indicated times, cells were washed in serum-free media, resuspended in 0.25M Tris-HCl pH 7.8, lysed by rapid freeze-thaw, centrifuged and the supernatant frozen at −70° C.” left out, “For β-galactosidase activity, lysates (50 μL) were mixed in triplicate with an equal volume of luciferase assay buffer (2×) in a 96-well plate and incubated overnight.” left out
# [4] = system: p21WAF1/CIP1 full-length promoter; experiment: p21WAF1/CIP1 luciferase reporter assay; assay type: cell-based, human; settings: 10 nM PMA, 100 nM FP, 3 and 6 h
# Experimental: as §3, with “In each experiment, pSV-βgal (Promega), containing the β-galactosidase gene under the control of the constitutively active SV40 promoter and enhancer, was co-transfected with the luciferase reporter at a ratio of 1:5 (w/w) to normalize for transfection efficiency. The cells were incubated overnight in complete media and treated with 10 nM PMA, 100 nM FP, or 10 nM PMA/100 nM FP for 3 or 6 h. At indicated times, cells were washed in serum-free media, resuspended in 0.25M Tris-HCl pH 7.8, lysed by rapid freeze-thaw, centrifuged and the supernatant frozen at −70° C.” left out, “For β-galactosidase activity, lysates (50 μL) were mixed in triplicate with an equal volume of luciferase assay buffer (2×) in a 96-well plate and incubated overnight.” left out
# p21WAF1/CIP1 = experiment: Western analysis of p21WAF1/CIP1 expression in U937 cells; assay type: cell-based, human
# Experimental: (§4) Western analysis. Equal quantities of protein (15 μg/condition for MAPK, 40 μg/condition for cytochrome c, or 25 μg/condition) were separated by SDS-PAGE [underphosporylated pRB (7.5%), poly(ADP-ribose)polymerase or PARP (8.0%), p44/p42 MAPK (10%), p21, p27, procaspase 3 (12%), and cytochrome c (15%)] and electroblotted onto nitrocellulose. Western analysis of p44/p42 MAPK protein was performed according to the manufacturer's instructions (New England Biolabs); otherwise, studies were performed as previously described [Wang et al, 1998]. Briefly, U937 cells (5×10^6) were pelleted by centrifugation, resuspended in 50 μl PBS, lysed by the addition of 2× Laemmli buffer and boiled for 5 min. Proteins were quantified with Coomassie protein assay reagent. Blots were blocked in PBS-T/5% milk, washed twice with PBS-T, and incubated overnight at 4° C. with the appropriate primary antibody. The blots were washed with PBS-T and incubated with a horseradish-peroxidase conjugated secondary antibody diluted appropriately in PBS-T/5% mill. Following incubation, blots were developed by enhanced chemiluminescence exposure to Kodak X-OMAT film (Eastman Kodak Co., Rochester, N.Y.) and reprobed with antibodies directed against actin to control for equal loading of protein.
# (§5) Alternatively, whole cell-pellets were washed twice in PBS, resuspended in PBS, and lysed by the addition of I volume of loading buffer. Lysates were boiled for 10 min, centrifuged at 12,800 g for 5 min and quantified using Coomassie protein assay reagent (Pierce, Rockfold, Ill.). 25 μg of total proteins per point were separated by SDS-PAGE and electro-blotted to nitrocellulose. The blots were blocked in 5% non-fat milk in PBS-T and probed for 1 h with the appropriate dilution of primary antibody. Blots were washed 3×10 min in PBS-T and then incubated with a 1:2000 dilution of peroxidase-conjugated secondary antibody for 1 h at room temperature. Blots were again washed 3×10 min in PBS-T and then developed by enhanced chemiluminesence. Where indicated, blots were stripped and re-probed with antibodies directed against actin.
# (§6) Primary antibodies for both p21^WAF1/CIP1 and p27^KIP1 (Transduction Laboratories, Lexington, Ky.) were used in a 1:1000 dilution; PARP (1:1000; Oncogene Research Products, Cambridge, Mass.); pro-caspase 3 (1:1000; Transduction Laboratories); cytochrome c (1:2000; Pharmingen); bcl-2 (1:2000; DAKO, Denmark); bax (1:1000; Santa Cruz Biotechnology, Inc., Santa Cruz, Calif.); bid (1:1000; Cell Signaling, Beverly, Mass.); XIAP (1:1000; Cell Signaling); Mcl-1 (1:1000; Pharmingen); bak (1:1000; Calbiochem); c-Myc (1:1000; Pharmingen, San Diego, Calif.); actin (1:2000; Sigma Chemicals, St. Louis, Mo.); cyclins-D1, -A and -E (1:1000; Pharmingen); pRb, underP-pRb, pRb-CDK2 and pRb-CDK4 (all 1:1000; Pharmingen); Ac-H3 and Ac-H4 (both 1:1000; Upstate Biotechnology, Lake Placid, N.Y.); E2F-1 (Upstate Biotechnology). Secondary antibodies conjugated to horseradish peroxidase were obtained from Kirkegaard and Perry Laboratories, Inc. (Gaithersburg, Md.). Coomassie protein assay reagent was purchased from Pierce (Rockford, Ill.), and an enhanced chemiluminescence kit was obtained from New England Nuclear (Boston, Mass.). The pan-caspase inhibitor BOC-D-fmk and the caspase 8 inhibitor Z-IETD-fmk were purchased from Enzyme System Products (Livermore, Calif.) All other chemicals or reagents were purchased from Sigma.
# p27KIP1 = experiment: Western analysis of p27KIP1 expression in U937 cells; assay type: cell-based, human; settings: 10 nM PMA, FP 50-100 nM, 24 h
# Experimental: as §4, with “Following incubation, blots were developed by enhanced chemiluminescence exposure to Kodak X-OMAT film (Eastman Kodak Co., Rochester, N.Y.) and reprobed with antibodies directed against actin to control for equal loading of protein.” left out
# Alternatively, whole cell-pellets were washed twice in PBS, resuspended in PBS, and lysed by the addition of I volume of loading buffer. Lysates were boiled for 10 min, centrifuged at 12,800 g for 5 min and quantified using Coomassie protein assay reagent (Pierce, Rockfold, Ill.). […]
# pRb = experiment: Western analysis of underphosphorylated pRb in U937 cells; assay type: cell-based, human
# Experimental: as §4, §5, §6
# ERK1/2 = experiment: Western analysis of phosphorylated p44/p42 MAPK in U937 cells; assay type: cell-based, human; settings: 10 nM PMA, 100 nM FP, 30 min-6 h
# Experimental: as §4
# [5] = system: HL-60 human promyelocytic leukemia cells; experiment: morphological assessment of apoptosis; assay type: cell-based; settings: 3, 5, or 10 μM ATRA, 80 nM FP
# Excerpt: as §1, §2
# U937 cells [6] = experiment: cell cycle analysis (propidium iodide, flow cytometry); assay type: cell-based, human; settings: 24 h after administration of SAHA, FP or both
# Experimental: Cell Cycle Analysis. Following drug treatment, cells were pelleted by centrifugation at 500 g×6 min, and resuspended in 70% ethanol. The cells were incubated on ice for at least 1 h and resuspended in 1 ml cell cycle buffer (0.38 mM Na-Citrate, 0.5 mg/ml RNase A, and 0.01 mg/ml propidium iodide) at a concentration of 10×10^5 cells/ml, stored in the dark at 4 C until analysis (24 h), using a Becton-Dickinson FACScan flow cytometer and Verity Winlist software (Verity Software, Topsham, Me.).
# [7] = system: U937 myelomonocytic human leukemia cells; experiment: percent cell death; assay type: cell-based; settings: 1 μM SAHA, 100 nM FP, 24 hours after administration
# [8] = system: HL-60 promyelocytic leukemia cells; experiment: percent cell death; assay type: cell-based, human; settings: SAHA 1 and 1.5 μM alone or with 100 or 150 nM FP
compound,measurement,setting,value
"Nc1ccn([C@@H]2O[C@H](CO)[C@@H](O)[C@@H]2O)c(=O)n1 [ara-C, 1-β-D-arabinofuranosylcytosine]",lethal effects in Bcl-2 overexpressing cells,U937/Bcl-2 cells,significantly protected
"CCCCCCCCCCCCCC(=O)O[C@@H]1[C@@H](C)[C@@]2(O)[C@@H](C=C(CO)C[C@]3(O)C(=O)C(C)=C[C@@H]23)[C@@H]2C(C)(C)[C@]12OC(C)=O [PMA, phorbol 12-myristate 13-acetate]","clonogenic survival, percentage relative to untreated controls",U937 cells [1],15%
same,percentage of cells displaying CD11b expression,U937 cells [2],26%
same,percentage of cells with plastic adherence,U937 cells [3],80%
same,p21WAF1/CIP1 reporter activity,[4],markedly increased
same,p21WAF1/CIP1 expression,"p21WAF1/CIP1; 10 nM PMA, FP 50-100 nM, 24 h",significant increase
same,time to induction of p21WAF1/CIP1 after drug addition,p21WAF1/CIP1; PMA 10 nM,≤ 1 h
same,p27KIP1 expression,p27KIP1,slight increase
same,time of pRb dephosphorylation,pRb; 10 nM PMA alone,3 h
same,full-length underphosphorylated pRb,"pRb; 10 nM PMA, FP 50, 80 or 100 nM, 24 h",significant increase
same,phosphorylation (activation) of ERK1/2,ERK1/2,increase in phosphorylated ERK1/2
"CC1=C(/C=C/C(C)=C/C=C/C(C)=C/C(=O)O)C(C)(C)CCC1 [ATRA, all trans retinoic acid]",% apoptosis,[5],minimal effect
"O=C(CCCCCCC(=O)Nc1ccccc1)NO [SAHA, suberoylanilide hydroxamic acid]",cell cycle distribution,U937 cells [6],prominent increase in the percentage of cells arresting in G0/G1
same,cell death,[7],ineffective
same,cell death,[8],modest levels of cell death

# Source: patent US20050004007A1, “Promotion of adoptosis in cancer cells by co-administration of cyclin dependent kinase inhibitiors and cellular differentiation agents” (priority 2000, published 2005)
